In patent publication US9199946B2, “Pyrimidinone carboxamide inhibitors of endothelial lipase” (BRISTOL-MYERS SQUIBB COMPANY, priority 2012, dated 2015):

The compounds below were run against T1, Endothelial lipase (EL) (Homo sapiens, UniProt Q9Y5X9) (assay: Endothelial lipase (EL) enzymatic assay with fluorescent substrate A10070 in DMPG vesicles). Settings: conditioned media from HT-1080 cells overexpressing endogenous EL; 20 min preincubation at 37° C.; read-out: EL IC50.
T1 construct: HT-1080 cells, which were transformed by RAGE technology (Athersys) to overexpress endogenous EL; endogenous in cells; conditioned medium used as the enzyme source
T1 sequence (Q9Y5X9 21-500): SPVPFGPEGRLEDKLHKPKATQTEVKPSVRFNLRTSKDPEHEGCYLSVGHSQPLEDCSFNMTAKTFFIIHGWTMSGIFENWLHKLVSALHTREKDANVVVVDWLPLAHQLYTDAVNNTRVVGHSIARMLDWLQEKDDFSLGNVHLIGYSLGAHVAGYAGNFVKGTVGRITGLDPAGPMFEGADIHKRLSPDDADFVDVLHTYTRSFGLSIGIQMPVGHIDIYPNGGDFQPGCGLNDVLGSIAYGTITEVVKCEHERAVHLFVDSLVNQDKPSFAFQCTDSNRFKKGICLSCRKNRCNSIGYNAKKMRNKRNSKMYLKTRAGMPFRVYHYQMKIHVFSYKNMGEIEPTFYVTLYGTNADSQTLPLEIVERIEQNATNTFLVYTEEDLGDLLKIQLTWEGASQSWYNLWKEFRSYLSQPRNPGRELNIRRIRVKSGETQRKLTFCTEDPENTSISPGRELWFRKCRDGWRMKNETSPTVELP
Format: biochemical
Procedure, shortened: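 EL activity was followed as a fluorescence rate (488/530 nm, reads every 20 s for 10 min, linear slope) on A10070 doped at 0.05 mole fraction into sonicated DMPG vesicles. Compound was first incubated 20 min at 37 °C, pH 8.0 HEPES/CaCl2 buffer, with conditioned media from EL-overexpressing HT-1080 cells.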

IC50 [µM] | SMILES
1.19 | Nc1c(C(=O)N[C@H]2CC[C@@H](NC(=O)c3nc4ccccc4s3)CC2)[nH]c(=O)[nH]c1=O [Example 117, N-(cis-4-(5-amino-2,6-dioxo-1,2,3,6-tetrahydropyrimidine-4-carboxamido)cyclohexyl)benzo[d] thiazole-2-carboxamide]
0.848 | Nc1c(C(=O)N[C@@H]2CCc3c(-c4ccccc4)cccc32)[nH]c(=O)[nH]c1=O [Example 137, (R)-5-amino-2,6-dioxo-N-(4-phenyl-2,3-dihydro-1H-inden-1-yl)-1,2,3,6-tetrahydropyrimidine-4-carboxamide]
7.16 | Nc1c(C(=O)N[C@H]2CCCc3ccc(C(F)(F)F)cc32)[nH]c(=O)[nH]c1=O [Example 54, (S)-5-amino-2,6-dioxo-N-(7-(trifluoromethyl)-1,2,3,4-tetrahydronaphthalen-1-yl)-1,2,3,6-tetrahydropyrimidine-4-carboxamide]

Same assay, conditions: range observed in the EL assay; read-out: EL IC50 values

SMILES | IC50 [µM]
NS(=O)(=O)c1ccc(CCNc2c(C(=O)N[C@H]3CC[C@@H](c4ccccc4)CC3)[nH]c(=O)[nH]c2=O)cc1 [Example 226, 2,6-dioxo-N-(cis-4-phenylcyclohexyl)-5-(4-sulfamoylphenethylamino)-1,2,3,6-tetrahydropyrimidine-4-carboxamide] | ≤ 10
Nc1c(C(=O)N[C@H]2CC[C@@H](c3ccc(OCc4ccccc4)cc3)CC2)[nH]c(=O)[nH]c1=O [Example 114, 5-amino-N-(cis-4-(4-(benzyloxy)phenyl)cyclohexyl)-2,6-dioxo-1,2,3,6-tetrahydropyrimidine-4-carboxamide] | ≤ 10
COc1cccc(N2CC(NC(=O)c3[nH]c(=O)[nH]c(=O)c3N)CC2=O)c1 (centres unmarked) [Example 81, 5-amino-N-(1-(3-methoxyphenyl)-5-oxopyrrolidin-3-yl)-2,6-dioxo-1,2,3,6-tetrahydropyrimidine-4-carboxamide] | ≤ 10
O=C(N[C@H]1CCCc2c(OCC(F)(F)F)cccc21)c1[nH]c(=O)[nH]c(=O)c1O [Example 246, (S)-5-hydroxy-2,6-dioxo-N-(5-(2,2,2-trifluoroethoxy)-1,2,3,4-tetrahydronaphthalen-1-yl)-1,2,3,6-tetrahydropyrimidine-4-carboxamide] | ≤ 10
Nc1c(C(=O)N[C@H]2CC[C@@H](NC(=O)OCc3ccccc3)CC2)[nH]c(=O)[nH]c1=O [Example 119, benzyl cis-4-(5-amino-2,6-dioxo-1,2,3,6-tetrahydropyrimidine-4-carboxamido)cyclohexylcarbamate] | ≤ 10
Nc1c(C(=O)N[C@@H]2CCC[C@H]2OCc2ccccc2)[nH]c(=O)[nH]c1=O [Example 63, 5-amino-N-((1R,2R)-2-(benzyloxy)cyclopentyl)-2,6-dioxo-1,2,3,6-tetrahydropyrimidine-4-carboxamide] | ≤ 10
COC(=O)C1CCCCC1NC(=O)c1[nH]c(=O)[nH]c(=O)c1N (centres unmarked) [Example 56, methyl 2-(5-amino-2,6-dioxo-1,2,3,6-tetrahydropyrimidine-4-carboxamido) cyclohexanecarboxylate] | ≤ 10
CCOC(=O)Cn1cc(-c2ccc([C@@H]3CC[C@H](NC(=O)c4[nH]c(=O)[nH]c(=O)c4N)C3)cc2)cn1 [Example 160, ethyl 2-(4-(4-((1R,3S)-3-(5-amino 2,6-dioxo-1,2,3,6-tetrahydropyrimidine-4-carboxamido)cyclopentyl)phenyl) 1H-pyrazol-1-yl)acetate] | ≤ 10
Nc1c(C(=O)NC2CCC(c3cccc(OCc4ccccc4)c3)C2)[nH]c(=O)[nH]c1=O (single isomer, unassigned) [Example 155, 5-amino-N-(3-(3-(benzyloxy)phenyl)cyclopentyl)-2,6-dioxo-1,2,3,6-tetrahydropyrimidine-4 carboxamide] | ≤ 10
O=C(N[C@H]1CC[C@@H](c2ccccc2)CC1)c1[nH]c(=O)n(CCC(F)(F)F)c(=O)c1O [Example 252, 5-hydroxy-2,6-dioxo-N-((1s,4s)-4-phenylcyclohexyl)-1-(3,3,3-trifluoropropyl)-1,2,3,6-tetrahydropyrimidine-4-carboxamide] | ≤ 10
Nc1c(C(=O)N[C@H]2CCc3c(Br)cccc32)[nH]c(=O)[nH]c1=O [Example 60, (S)-5-amino-N-(4-bromo-2,3-dihydro-1H-inden-1-yl)-2,6-dioxo-1,2,3,6-tetrahydropyrimidine-4-carboxamide] | ≤ 10
Nc1c(C(=O)NC2CCCC(c3ccccc3)C2)[nH]c(=O)[nH]c1=O (centres unmarked) [Example 101, 5-amino-2,6-dioxo-N-(3-phenylcyclohexyl)-1,2,3,6-tetrahydropyrimidine-4-carboxamide] | ≤ 10
COc1ccc([C@@H]2CC[C@@H](NC(=O)c3[nH]c(=O)[nH]c(=O)c3N)C2)cn1 [Example 80, 5-amino-N-((1R,3R)-3-(6-methoxypyridin-3-yl)cyclopentyl)-2,6-dioxo-1,2,3,6-tetrahydropyrimidine-4-carboxamide] | ≤ 10
O=C(N[C@H]1CC[C@@H](c2ccccc2)CC1)c1[nH]c(=O)[nH]c(=O)c1NCc1ccccc1CO [Example 212, 5-(2-(hydroxymethyl)benzylamino)-2,6-dioxo-N-(cis-4-phenylcyclohexyl)-1,2,3,6-tetrahydropyrimidine-4-carboxamide] | ≤ 10
Nc1c(C(=O)N[C@@H]2CCc3c(OCc4ccccc4)cccc32)[nH]c(=O)[nH]c1=O [Example 86, (R)-5-ammo-N-(4-(benzyloxy)-2,3-dihydro-1H-inden-1-yl)-2,6-dioxo-1,2,3,6-tetrahydropyrimidine-4-carboxamide] | ≤ 10
COc1ccccc1C1CCC(NC(=O)c2[nH]c(=O)[nH]c(=O)c2O)C1 (centres unmarked) [Example 292, 5-hydroxy-N-(3-(2-methoxyphenyl)cyclopentyl)-2,6-dioxo-1,2,3,6-tetrahydropyrimidine-4 carboxamide] | ≤ 10
Nc1c(C(=O)N[C@@H]2CCCc3c(Nc4ccccc4)cccc32)[nH]c(=O)[nH]c1=O [Example 126, (R)-5-amino-2,6-dioxo-N-(5-(phenylamino)-1,2,3,4-tetrahydronaphthalen-1-yl)-1,2,3,6-tetrahydropyrimidine-4-carboxamide] | ≤ 10
O=C(N[C@@H]1CCc2ccc(C(F)(F)F)cc21)c1[nH]c(=O)[nH]c(=O)c1O [Example 248, (R)-5-hydroxy-2,6-dioxo-N-(6-(trifluoromethyl)-2,3-dihydro-1H-inden-1-yl)-1,2,3,6-tetrahydropyrimidine-4-carboxamide] | ≤ 10
Nc1c(C(=O)NC2CCCc3cc(OCC(F)(F)F)ccc32)[nH]c(=O)[nH]c1=O (centres unmarked) [Example 22, 5-amino-2,6-dioxo-N-(6-(2,2,2-trifluoroethoxy)-1,2,3,4-tetrahydronaphthalen-1-yl)-1,2,3,6-tetrahydropyrimidine-4-carboxamide] | ≤ 10

The next lines start with the values.

IC50 [µM] | SMILES
≤ 10 | CN1CCC(Nc2c(C(=O)N[C@H]3CC[C@@H](c4ccccc4)CC3)[nH]c(=O)[nH]c2=O)CC1 [Example 230, 5-(1-methylpiperidin-4-ylamino)-2,6-dioxo-N-(cis-4-phenylcyclohexyl)-1,2,3,6-tetrahydropyrimidine-4-carboxamide]
≤ 10 | Nc1c(C(=O)N[C@H]2CCCc3cc(C(F)(F)F)ccc32)[nH]c(=O)[nH]c1=O [Example 52, (S)-5-amino-2,6-dioxo-N-(6-(trifluoromethyl)-1,2,3,4-tetrahydronaphthalen-1-yl)-1,2,3,6-tetrahydropyrimidine-4-carboxamide]
≤ 10 | Nc1c(C(=O)N[C@H]2CC[C@@H](NC(=O)c3nc4ccccc4s3)CC2)[nH]c(=O)[nH]c1=O [Example 117, N-(cis-4-(5-amino-2,6-dioxo-1,2,3,6-tetrahydropyrimidine-4-carboxamido)cyclohexyl)benzo[d] thiazole-2-carboxamide]
≤ 10 | Nc1c(C(=O)N[C@H]2C[C@@H](c3ccccc3)c3ccccc32)[nH]c(=O)[nH]c1=O (racemic) [Example 18, 5-amino-2,6-dioxo-N-(cis-3-phenyl-2,3-dihydro-1H-inden-1-yl)-1,2,3,6-tetrahydropyrimidine-4-carboxamide]
≤ 10 | COc1ccc([C@@H]2CC[C@H](NC(=O)c3[nH]c(=O)[nH]c(=O)c3N)C2)cn1 [Example 79, 5-amino-N-((1S,3R)-3-(6-methoxypyridin-3-yl)cyclopentyl)-2,6-dioxo-1,2,3,6-tetrahydropyrimidine-4-carboxamide]
≤ 10 | Nc1c(C(=O)N[C@@H]2CCc3cc(OCc4ccccc4)ccc32)[nH]c(=O)[nH]c1=O [Example 87, (R)-5-amino-N-(5-(benzyloxy)-2,3-dihydro-1H-inden-1-yl)-2,6-dioxo-1,2,3,6-tetrahydropyrimidine-4-carboxamide]
≤ 10 | O=C(N[C@H]1CCN(c2ccccc2)C1)c1[nH]c(=O)[nH]c(=O)c1O [Example 274, (S)-5-hydroxy-2,6-dioxo-N-(1-phenylpyrrolidin-3-yl)-1,2,3,6-tetrahydropyrimidine-4-carboxamide]
≤ 10 | CC(C)(C)COc1ccc(C2CCC(NC(=O)c3[nH]c(=O)[nH]c(=O)c3O)C2)cc1 (centres unmarked) [Example 293, 5-hydroxy-N-(3-(4-(neopentyloxy)phenyl)cyclopentyl)-2,6-dioxo-1,2,3,6-tetrahydropyrimidine-4-carboxamide]
≤ 10 | Nc1c(C(=O)N[C@@H]2CCc3c(-c4ccccc4)cccc32)[nH]c(=O)[nH]c1=O [Example 137, (R)-5-amino-2,6-dioxo-N-(4-phenyl-2,3-dihydro-1H-inden-1-yl)-1,2,3,6-tetrahydropyrimidine-4-carboxamide]
≤ 10 | Nc1c(C(=O)N[C@H]2CCCc3ccc(C(F)(F)F)cc32)[nH]c(=O)[nH]c1=O [Example 54, (S)-5-amino-2,6-dioxo-N-(7-(trifluoromethyl)-1,2,3,4-tetrahydronaphthalen-1-yl)-1,2,3,6-tetrahydropyrimidine-4-carboxamide]
